The results in this text go back to ChEMBL document CHEMBL1139080, “3-Mercaptopropionic acids as efficacious inhibitors of activated thrombin activatable fibrinolysis inhibitor (TAFIa)” (Bioorg Med Chem Lett, 2007).

One test concerns Plasma. As to the kind of experiment: Inhibition of activated thrombin activatable fibrinolysis inhibitor in human plasma assessed as acceleration of clot lysis time. It is filed as functional, cell-free.
Test [1] deals with T1, Carboxypeptidase N catalytic chain (Homo sapiens, UniProt P15169).
T1 sequence (P15169 whole entry): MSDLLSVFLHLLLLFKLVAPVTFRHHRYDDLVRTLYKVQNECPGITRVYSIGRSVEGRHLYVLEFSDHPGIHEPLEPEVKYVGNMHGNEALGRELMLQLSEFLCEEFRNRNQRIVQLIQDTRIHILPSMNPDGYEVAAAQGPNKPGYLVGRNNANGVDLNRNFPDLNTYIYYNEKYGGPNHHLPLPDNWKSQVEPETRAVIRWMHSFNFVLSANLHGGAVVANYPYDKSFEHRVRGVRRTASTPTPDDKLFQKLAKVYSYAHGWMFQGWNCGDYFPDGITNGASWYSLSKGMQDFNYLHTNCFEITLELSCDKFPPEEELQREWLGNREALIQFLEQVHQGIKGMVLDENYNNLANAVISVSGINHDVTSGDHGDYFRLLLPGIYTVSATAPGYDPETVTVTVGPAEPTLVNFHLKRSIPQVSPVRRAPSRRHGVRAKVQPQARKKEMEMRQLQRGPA
The experiment in a line: Inhibition of human carboxypeptidase N.

For another test, the target named is T2, Carboxypeptidase B2 (Homo sapiens, UniProt Q96IY4).
T2 sequence (Q96IY4 whole entry): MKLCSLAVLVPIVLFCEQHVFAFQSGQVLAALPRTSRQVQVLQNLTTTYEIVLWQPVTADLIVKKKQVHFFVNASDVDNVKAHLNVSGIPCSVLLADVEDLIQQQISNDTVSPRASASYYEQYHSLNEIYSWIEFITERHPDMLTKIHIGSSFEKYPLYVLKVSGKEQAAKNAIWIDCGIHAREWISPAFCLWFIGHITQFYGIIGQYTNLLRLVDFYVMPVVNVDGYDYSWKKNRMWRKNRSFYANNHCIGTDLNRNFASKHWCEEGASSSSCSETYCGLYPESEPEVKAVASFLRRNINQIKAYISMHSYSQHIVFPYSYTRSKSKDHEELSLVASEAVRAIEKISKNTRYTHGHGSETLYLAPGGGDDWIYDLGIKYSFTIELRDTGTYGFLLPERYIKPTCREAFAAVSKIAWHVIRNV
The experiment in a line: Inhibition of human activated thrombin activatable fibrinolysis inhibitor.

In another test the target is T3, Carboxypeptidase B (Sus scrofa, UniProt P09955).
T3 sequence (P09955 whole entry): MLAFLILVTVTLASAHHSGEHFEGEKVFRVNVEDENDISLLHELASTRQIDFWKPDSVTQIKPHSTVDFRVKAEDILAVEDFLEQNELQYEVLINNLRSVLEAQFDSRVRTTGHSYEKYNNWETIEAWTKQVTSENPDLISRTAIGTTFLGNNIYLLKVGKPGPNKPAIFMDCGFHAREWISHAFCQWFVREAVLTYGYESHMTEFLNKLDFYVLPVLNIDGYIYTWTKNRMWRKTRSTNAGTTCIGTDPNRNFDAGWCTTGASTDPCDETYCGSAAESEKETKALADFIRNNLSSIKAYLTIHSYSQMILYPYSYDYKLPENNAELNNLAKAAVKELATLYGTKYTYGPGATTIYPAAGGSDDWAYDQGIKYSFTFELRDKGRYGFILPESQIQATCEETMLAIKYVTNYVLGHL
The experiment in a line: Inhibition of porcine pancreatic carboxypeptidase B.

Consider `N=C(N)Nc1cccc(C(CS)C(=O)O)c1` (racemic) [listing 1 of 2 here], for which, in the test on Plasma, the Activity result was “Dose-dependent effect”.

Take `Nc1cccc(C(CS)C(=O)O)c1` (stereo not given): the IC50 in test [1] was 357 nM; against Carboxypeptidase B2 it was 785 nM; at Carboxypeptidase B, over 30000 nM.

As to `N=C(N)Nc1ccc(Cl)c(C(CS)C(=O)O)c1` (stereo not given), the IC50 in test [1] stood at 4650 nM; at Carboxypeptidase B2, 11 nM; against Carboxypeptidase B, 4650 nM.

On to `N=C(N)Nc1cccc(C(CS)C(=O)O)c1` (single isomer, unassigned; (+)), for which the results for the IC50 (in test [1]; on Carboxypeptidase B2; against Carboxypeptidase B) were 8 nM, 5 nM and 36 nM, respectively.

As for `O=C(O)C(CS)CC1CCNCC1` (stereo not given), the IC50 in test [1] stood at 61 nM; on Carboxypeptidase B2, 139 nM; against Carboxypeptidase B, 29 nM.

For `NCC(=O)N1CCC(C(CS)C(=O)O)CC1` (stereo not given), the IC50 in test [1] is 4950 nM; at Carboxypeptidase B2, 7350 nM; on Carboxypeptidase B, over 30000 nM.

`O=C(O)C(CS)C1CCNCC1` (stereo not given): the IC50 in test [1] was 60 nM; at Carboxypeptidase B2, 37 nM; on Carboxypeptidase B, 195 nM.

As for `O=C(O)C(CS)CC1CCCNC1` (stereo in doubt; 3a), the concentration for half-maximal inhibition (IC50) in test [1] worked out at 420 nM; on Carboxypeptidase B2, 92 nM; at Carboxypeptidase B it was 4150 nM.

Regarding `N=C(N)Nc1cccc(C(CS)C(=O)O)c1` (stereo in doubt; (-)2a), the IC50 in test [1] worked out at 1720 nM; against Carboxypeptidase B2, 3 nM; on Carboxypeptidase B, 1720 nM.

On to `N=C(N)N1CCC(C(CS)C(=O)O)CC1` (stereo not given), for which the IC50 came to 3100 nM in test [1], 1070 nM against Carboxypeptidase B2 and 45 nM on Carboxypeptidase B.

Turning to `O=C(O)C(CS)C1CCCNC1` (stereo in doubt; 1e), the IC50 was 1750 nM in test [1], 445 nM on Carboxypeptidase B2 and 19000 nM against Carboxypeptidase B.

On to `N=C(N)Nc1cccc(C(CS)C(=O)O)c1` (racemic) [listing 2 of 2 here], for which the IC50 in test [1] came to 3 nM; against Carboxypeptidase B2, 4 nM; on Carboxypeptidase B, 137 nM.

In the case of `CC(=N)N1CCC(C(CS)C(=O)O)CC1` (stereo not given), the IC50 in test [1] worked out at 29000 nM; on Carboxypeptidase B2, 5300 nM; on Carboxypeptidase B it was 1040 nM.

As to `NC(N)=NCCCC(CS)C(=O)O` (stereo not given), the IC50 was found to be 2 nM in test [1], 8 nM on Carboxypeptidase B2 and 10 nM at Carboxypeptidase B.

For `N=C(N)N1CCCC(C(CS)C(=O)O)C1` (stereo in doubt; 1b), the values for the IC50 (in test [1]; against Carboxypeptidase B2; on Carboxypeptidase B) were 38 nM, 45 nM and 38 nM, respectively.

For `N=C(N)c1ccc(C(CS)C(=O)O)cc1` (stereo not given), the IC50 is 1000 nM in test [1], 905 nM against Carboxypeptidase B2 and 845 nM at Carboxypeptidase B.

On to `N=C(N)N1CCCC(C(CS)C(=O)O)C1` (stereo in doubt; 1d), for which the figures for the IC50 (in test [1]; against Carboxypeptidase B2; against Carboxypeptidase B) were 58 nM, 165 nM and 3 nM, respectively.

Turning to `O=C(O)C(CS)C1CCCNC1` (stereo in doubt; 1c), the IC50 in test [1] is over 30000 nM; at Carboxypeptidase B2 it was 68 nM; against Carboxypeptidase B it was over 30000 nM.

Consider `O=C(O)C(CS)CC1CCCNC1` (stereo in doubt; 3b), for which the IC50 in test [1] was over 30000 nM; against Carboxypeptidase B2 it was 129 nM; on Carboxypeptidase B, 1950 nM.
